From US20250120929A1, “METHOD OF TREATING VIRUS-ASSOCIATED INFECTION USING ACETAMINOPHEN” (Sanbiozi Medical Science Inc., priority 2023, published 2025)

Key:
PRRS virus (PRRSV2) [1] = test: In vivo test of acetaminophen against PRRS-infected piglet; set-up: unit not given here
Excerpt: (§1) In this embodiment, the weaned piglets were selected according to their PRRS syndromes. The three piglets were randomly selected in accordance with the professional experience on the syndromes of PRRS and the […] principles of animal test were followed as well. Three infected piglets were proceeded for preliminary test of the effectiveness of antiviral drugs of PRRS.
(§2) Three infected piglets raised in an isolated pen of the same pig house. Eighty milliliter acetaminophen therapy was given three times orally. Their blood samples were test weekly. Unfortunately, piglet 1 was unable to make over the first week. The other 2 piglets were able make over the process.

PRRS virus (PRRSV2) [2] = test: as above; set-up: key: −: Negative; ±: Virus was detected at very low concentrations
Excerpt: as §1, §2

MHV-A59 = test: In vivo test of acetaminophen against MHV-infected mice; set-up: species or system C57BL/6 mice; details: 0.25 mg/mL acetaminophen solution daily via oral gavage, MHV-A59 5×10^6 PFU/mouse i.p.
Excerpt: The present invention utilized the Mouse Hepatitis Virus (MHV) and swine virus PRRS as the infectious agents to evaluate the effectiveness of acetaminophen in vivo. We aimed to perform mouse and piglet survival experiments to completely assess acetaminophen against virus infection as a preclinical evaluation.
Intraperitoneal administration of MHV-A59 with high titer (5×10^6 PFU/mouse) on C57BL/6 mice to cause a high mortality rate. The MHV-infected mice were grouped as follows: 1. PBS vehicle control; 2. 0.25 mg/mL of acetaminophen solution treatment groups followed by treating acetaminophen daily via oral gavage. The viral administration cause loss of body weights on mice. […] These animal data strongly argue the potential application of acetaminophen in developing to an antiviral agent.

Mv1Lu cells = test: In vitro test for cytotoxicity of acetaminophen; format: cell-based, mink; details: five days of incubation; concentration as high as 1000 μg/mL
Method: Specifically, mink lung epithelial cells, Mv1Lu, were treated with acetaminophen.

PRRS virus (PRRSV2) [3] = test: In vivo test of acetaminophen against PRRS-infected piglet; details: 80 mL acetaminophen therapy three times orally
Excerpt: as §1, §2

SMILES: CC(=O)Nc1ccc(O)cc1 [acetaminophen]
- Concentration of PRRSV2 by RT-PCR (PRRS virus (PRRSV2) [1]; Piglet 1, test 1 (weekly blood sample)): 7.7 × 10 ^5
- Concentration of PRRSV2 by RT-PCR (PRRS virus (PRRSV2) [1]; Piglet 2, test 2 (weekly blood sample), weekly blood test 2): 1.3 × 10^3
- Concentration of PRRSV2 by RT-PCR (PRRS virus (PRRSV2) [1]; Piglet 3, test 1 (weekly blood sample), weekly blood test 1): 8.2 × 10 ^4
- Concentration of PRRSV2 by RT-PCR (PRRS virus (PRRSV2) [1]; Piglet 3, test 3 (weekly blood sample), weekly blood test 3): 2.9 × 10 ^2
- Concentration of PRRSV2 by RT-PCR (PRRS virus (PRRSV2) [2]; Piglet 2, test 1 (weekly blood sample), weekly blood test 1): −
- Concentration of PRRSV2 by RT-PCR (PRRS virus (PRRSV2) [2]; Piglet 2, test 3 (weekly blood sample), weekly blood test 3): −
- Concentration of PRRSV2 by RT-PCR (PRRS virus (PRRSV2) [2]; Piglet 3, test 2 (weekly blood sample), weekly blood test 2): ±
- body weight of MHV-infected mice (MHV-A59; compared to MHV-only mice): significantly retained the mouse weights
- survival rate (printed as mortality rate) of MHV-infected mice (MHV-A59; virus vehicle control 100% death rate): 50%
- cytotoxicity on Mv1Lu cells (Mv1Lu cells): no significant cytotoxicity
- virus concentration in the body (PRRS virus (PRRSV2) [3]; piglets 2 and 3): decreased
- survival of PRRS-infected piglets (PRRS virus (PRRSV2) [3]; three infected piglets): piglets 2 and piglet 3 survived
